According to patent publication US20050234065A1, “Dipeptidyl peptidase-IV inhibitors” (Pfizer Inc, priority 2004, published 2005):
pIC50: −log10 of the molar value.

What follows are molecules tested against T1, DPP-IV (Homo sapiens, UniProt P27487) (assay: In vitro assay for dipeptidyl peptidase inhibition). Details: hydrochloride salts; Gly-Pro-4-methoxy B naphthylamide substrate; overnight at 37° C.; read-out: IC50 (concentration of test compound required for 50% inhibition).
T1 construct: purchased Enzyme Systems Products SPE-01
Type: biochemical
Method: 150 μL of an enzyme-substrate solution was pipetted into microtiter wells of a polystyrene 96-well plate, and maintained at 4° C. The enzyme-substrate solution comprised 50 μM Gly-Pro-4-methoxy B naphthylamide HCl in 50 mM Tris assay buffer pH 7.3 containing 0.1M sodium chloride, 0.1% (v/v) Triton and 50 μU/mL DPP-IV (Enzyme Systems Products Cat#SPE-01, DPP-IV 5 mU/mL stock). 5 μL/well of compounds of Formula (I) were added, bringing the final compound of Formula (I) concentrations to 3 μM-10 nM per well.
Controls. Enzyme was omitted from four (4) wells, as a reagent blank. 5 μL of 3 mM Diprotin A was added to four wells as a positive quality control, providing a final Diprotin A concentration of 100 μM. To measure total enzyme activity (i.e. a negative control), without the influence of any compounds of Formula (I), 5 μL of distilled water was added to four wells.
The entire assay was incubated overnight (about 14-18 hours) at 37° C.

T1 sequence (P27487 whole entry, species assumed): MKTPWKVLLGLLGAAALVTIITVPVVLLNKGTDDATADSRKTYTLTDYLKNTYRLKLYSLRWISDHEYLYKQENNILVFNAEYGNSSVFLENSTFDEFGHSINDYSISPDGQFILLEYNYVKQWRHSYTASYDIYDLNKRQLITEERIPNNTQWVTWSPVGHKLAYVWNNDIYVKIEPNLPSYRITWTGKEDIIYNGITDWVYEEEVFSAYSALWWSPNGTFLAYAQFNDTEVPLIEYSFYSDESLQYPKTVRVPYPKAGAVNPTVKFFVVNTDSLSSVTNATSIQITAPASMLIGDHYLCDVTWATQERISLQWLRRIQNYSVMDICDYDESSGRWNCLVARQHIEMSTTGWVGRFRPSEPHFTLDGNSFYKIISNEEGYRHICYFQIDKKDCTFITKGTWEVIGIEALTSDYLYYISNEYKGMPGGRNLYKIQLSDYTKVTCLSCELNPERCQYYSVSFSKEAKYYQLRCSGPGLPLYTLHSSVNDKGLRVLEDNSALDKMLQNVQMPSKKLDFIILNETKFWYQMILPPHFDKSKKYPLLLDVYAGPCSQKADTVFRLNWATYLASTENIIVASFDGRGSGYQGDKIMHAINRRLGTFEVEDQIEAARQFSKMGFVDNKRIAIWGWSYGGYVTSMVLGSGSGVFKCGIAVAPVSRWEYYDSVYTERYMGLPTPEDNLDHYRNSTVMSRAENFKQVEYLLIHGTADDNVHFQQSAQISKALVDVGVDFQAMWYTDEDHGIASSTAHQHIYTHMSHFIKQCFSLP

| pIC50 | Structure (SMILES) |
| --- | --- |
| 6.30 to 7.00 | N[C@H](C(=O)N1CCCC1)[C@H]1CC[C@@H](NC(=O)CCC2C(=O)OCN2C(=O)OCc2ccccc2)CC1 (stereo in doubt) [Example 4, (4S)-4-{2-[cis-4-((1S)-1-amino-2-oxo-2-pyrrolidin-1-yl-ethyl)-cyclohexylcarbamoyl]-ethyl}-5-oxo-oxazolidine-3-carboxylic acid benzyl ester] |
| < 6.30 | N[C@H](C(=O)N1CCCC1)[C@H]1CC[C@@H](NC(=O)CNC(=O)c2ccccc2)CC1 [Example 1, N-{[cis-4-((1S)-1-amino-2-oxo-2-pyrrolidin-1-yl-ethyl)-cyclohexylcarbamoyl]-methyl}-benzamide] |
| < 6.30 | N[C@H](C(=O)N1CCCC1)[C@H]1CC[C@@H](NC(=O)CNC(=O)OCc2ccccc2)CC1 [Example 2, {[cis-4-((1S)-1-amino-2-oxo-2-pyrrolidin-1-yl-ethyl)-cyclohexylcarbamoyl]-methyl}-carbamic acid benzyl ester] |
| < 6.30 | N[C@H](C(=O)N1CCCC1)[C@H]1CC[C@@H](NC(=O)[C@@H]2CCCN2C(=O)OCc2ccccc2)CC1 [Example 3, (2S)-2-[cis-4-(1-(1S)-amino-2-oxo-2-pyrrolidin-1-yl-ethyl)-cyclohexylcarbamoyl]-pyrrolidine-1-carboxylic acid benzyl ester] |
| 6.30 to 7.00 | N[C@H](C(=O)N1CCCC1)[C@H]1CC[C@@H](NC(=O)[C@H]2COCN2C(=O)OCc2ccccc2)CC1 [Example 5, (4R)-4-[cis-4-((1S)-1-amino-2-oxo-2-pyrrolidin-1-yl-ethyl)-cyclohexylcarbamoyl]-oxazolidine-3-carboxylic acid benzyl ester] |
| < 6.30 | N[C@H](C(=O)N1CCCC1)[C@H]1CC[C@@H](NC(=O)[C@@H]2COCN2C(=O)OCc2ccccc2)CC1 [Example 6, (4S)-4-[cis-4-((1S)-1-amino-2-oxo-2-pyrrolidin-1-yl-ethyl)-cyclohexylcarbamoyl]-oxazolidine-3-carboxylic acid benzyl ester] |
| < 6.30 | N[C@H](C(=O)N1CCCC1)[C@H]1CC[C@@H](NC(=O)[C@@H]2CNC(=O)N2C(=O)OCc2ccccc2)CC1 [Example 7, (5S)-5-[cis-4-((1S)-1-amino-2-oxo-2-pyrrolidin-1-yl-ethyl)-cyclohexylcarbamoyl]-2-oxo-imidazolidine-1-carboxylic acid benzyl ester] |
| 6.30 to 7.00 | N[C@H](C(=O)N1CCCC1)[C@H]1CC[C@H](NC(=O)[C@H]2COCN2C(=O)OCc2ccccc2)CC1 [Example 8, (4R)-4-[trans-4-((1S)-1-amino-2-oxo-2-pyrrolidin-1-yl-ethyl)-cyclohexylcarbamoyl]-oxazolidine-3-carboxylic acid benzyl ester] |
| ≥ 7.00 | N[C@H](C(=O)N1CCCC1)[C@H]1CC[C@H](NC(=O)[C@@H]2CNC(=O)N2C(=O)OCc2ccccc2)CC1 [Example 9, (5S)-5-[trans-4-((1S)-1-amino-2-oxo-2-pyrrolidin-1-yl-ethyl)-cyclohexylcarbamoyl]-2-oxo-imidazolidine-1-carboxylic acid benzyl ester] |
| ≥ 7.00 | N[C@H](C(=O)N1CCCC1)[C@H]1CC[C@H](NC(=O)CC[C@H]2C(=O)OCN2C(=O)OCc2ccccc2)CC1 [Example 10, (4S)-4-{2-[trans-4-((1S-)-1-amino-2-oxo-2-pyrrolidin-1-yl-ethyl)-cyclohexylcarbamoyl]-ethyl}-5-oxo-oxazolidine-3-carboxylic acid benzyl ester] |
| ≥ 7.00 | N[C@H](C(=O)N1CCCC1)[C@H]1CC[C@H](NC(=O)[C@@H]2COCN2C(=O)OCc2ccccc2)CC1 [Example 11, (4S)-4-[trans-4-((1S)-1-amino-2-oxo-2-pyrrolidin-1-yl-ethyl)-cyclohexylcarbamoyl]-oxazolidine-3-carboxylic acid benzyl ester] |
| ≥ 7.00 | N[C@H](C(=O)N1CCCC1)[C@H]1CC[C@H](NC(=O)[C@@H]2C[C@@H](O)CN2C(=O)OCc2ccccc2)CC1 [Example 12, (2S,4R)-2-[trans-4-((1S)-1-amino-2-oxo-2-pyrrolidin-1-yl-ethyl)-cyclohexylcarbamoyl]-4-hydroxy-pyrrolidine-1-carboxylic acid benzyl ester] |
| ≥ 7.00 | N[C@H](C(=O)N1CCCC1)[C@H]1CC[C@H](NC(=O)C[C@H]2C(=O)OCN2C(=O)OCc2ccccc2)CC1 [Example 13, (4S)-4-{[trans-4-((1S)-1-amino-2-oxo-2-pyrrolidin-1-yl-ethyl)-cyclohexylcarbamoyl]-methyl}-5-oxo-oxazolidine-3-carboxylic acid benzyl ester] |
| 6.30 to 7.00 | N[C@H](C(=O)N1CCCC1)[C@H]1CC[C@H](NC(=O)[C@@H]2CCC(=O)N2C(=O)OCc2ccccc2)CC1 [Example 14, (2S)-2-[trans-4-(1-(1S)-amino-2-oxo-2-pyrrolidin-1-yl-ethyl)-cyclohexylcarbamoyl]-5-oxo-pyrrolidine-1-carboxylic acid benzyl ester] |
| ≥ 7.00 | N[C@H](C(=O)N1CCCC1)[C@H]1CC[C@H](NC(=O)[C@H]2CCC(=O)N2C(=O)OCc2ccccc2)CC1 [Example 15, (2R)-2-[trans-4-(1-(S)-amino-2-oxo-2-pyrrolidin-1-yl-ethyl)-cyclohexylcarbamoyl]-5-oxo-pyrrolidine-1-carboxylic acid benzyl ester] |
| ≥ 7.00 | N[C@H](C(=O)N1CCCC1)[C@H]1CC[C@H](NC(=O)[C@@H]2COC(=O)N2Cc2ccccc2)CC1 [Example 16, (4S)-3-benzyl-2-oxo-oxazolidine-4-carboxylic acid [trans-4-((1S)-1-Amino-2-oxo-2-pyrrolidin-1-yl-ethyl)-cyclohexyl]-amide] |
| 6.30 to 7.00 | CN(C(=O)OCc1ccccc1)C(C)(C)C(=O)N[C@H]1CC[C@H]([C@H](N)C(=O)N2CCCC2)CC1 [Example 17, (S)-{1-[trans-4-(1-amino-2-oxo-2-pyrrolidin-1-yl-ethyl)-cyclohexylcarbamoyl]-1-methyl-ethyl)-methyl-carbamic acid benzyl ester] |
| ≥ 7.00 | NC(=O)c1nccnc1C(=O)N[C@H]1CC[C@H]([C@H](N)C(=O)N2CCCC2)CC1 [Example 19, (S)-pyrazine-2,3-dicarboxylic acid amide [trans-4-(1-amino-2-oxo-2-pyrrolidin-1-yl-ethyl)-cyclohexyl]-amide] |
| ≥ 7.00 | N[C@H](C(=O)N1CCCC1)[C@H]1CC[C@H](NC(=O)CN2C(=O)c3ccccc3/C2=C\c2ccccc2)CC1 [Example 20, N-[trans-4-(1-(1S)-amino-2-oxo-2-pyrrolidin-1-yl-ethyl)-cyclohexyl]-2-(1-benzylidene-3-oxo-1,3-dihydro-isoindol-2-yl)-acetamide] |
| 6.30 to 7.00 | NC(C(=O)N1CCCC1)C1CCC(NC(=O)C2CC(O)CN2)CC1 [Example 21, (1S,4R)-4-hydroxy-pyrrolidine-2-carboxylic acid [trans-4-((1S)-1-amino-2-oxo-2-pyrrolidin-1-yl-ethyl)-cyclohexyl]-amide] |
| ≥ 7.00 | N[C@H](C(=O)N1CCCC1)[C@H]1CC[C@H](N2C(=O)c3nccnc3C2=O)CC1 [Example 22, 6-[trans-4-((1S)-1-amino-2-oxo-2-pyrrolidin-1-yl-ethyl)-cyclohexyl]-pyrrolo[3,4-b]pyrazine-5,7-dione] |
| ≥ 7.00 | N[C@H](C(=O)N1CCCC1)[C@H]1CC[C@H](N2C(=O)c3cccnc3C2=O)CC1 [Example 24, 6-[trans-4-((1S)-1-amino-2-oxo-2-pyrrolidin-1-yl-ethyl)-cyclohexyl]-pyrrolo[3,4-b]pyridine-5,7-dione] |
| ≥ 7.00 | N[C@H](C(=O)N1CCCC1)[C@H]1CC[C@H](NC(=O)N2CCC[C@H]2COCc2ccccc2)CC1 [Example 25, 2-benzyloxymethyl-pyrrolidine-1-carboxylic acid [trans-4-((1S)-1-Amino-2-oxo-2-pyrrolidin-1-yl-ethyl)-cyclohexyl]-amide] |
| 6.30 to 7.00 | N[C@H](C(=O)N1CCCC1)[C@H]1CC[C@H](N2C(=O)O[C@@H](c3ccccc3)C2=O)CC1 [Example 28, 3-[trans-4-((1S)-1-amino-2-oxo-2-pyrrolidin-1-yl-ethyl)-cyclohexyl]-(5S)-5-phenyl-oxazolidine-2,4-dione] |
| ≥ 7.00 | N[C@H](C(=O)N1CCC(F)(F)C1)[C@H]1CC[C@H](NC(=O)[C@@H]2CNC(=O)N2C(=O)OCc2ccccc2)CC1 [Example 29, (5S)-5-{trans-4-[(1S)-1-amino-2-(3,3-difluoro-pyrrolidin-1-yl)-2-oxo-ethyl]-cyclohexylcarbamoyl}-2-oxo-imidazolidine-1-carboxylic acid benzyl ester] |
| ≥ 7.00 | CN(CC(=O)N[C@H]1CC[C@H]([C@H](N)C(=O)N2CCC(F)(F)C2)CC1)C(=O)OCc1ccccc1 [Example 30, (S)-({trans-4-[1-amino-2-(3,3-difluoro-pyrrolidin-1-yl)-2-oxo-ethyl]-cyclohexylcarbamoyl}-methyl)-methyl-carbamic acid benzyl ester] |
| ≥ 7.00 | N[C@H](C(=O)N1CCC(F)(F)C1)[C@H]1CC[C@H](NC(=O)[C@@H]2C[C@@H](O)CN2C(=O)OCc2ccccc2)CC1 [Example 31, 2-{trans-4-[1-(1S)-amino-2-(3,3-difluoro-pyrrolidin-1-yl)-2-oxo-ethyl]-cyclohexylcarbamoyl}-(4R)-4-hydroxy-pyrrolidine-1-carboxylic acid benzyl ester] |

Same assay, conditions: hydrochloride salts; Gly-Pro-4-methoxy B naphthylamide substrate; overnight at 37° C.; read-out: IC50 (concentration of test compound required for 50% inhibition), bound given in μM

| IC50 [µM] | Structure (SMILES) |
| --- | --- |
| ≤ 1 | N[C@H](C(=O)N1CCCC1)[C@H]1CC[C@@H](NC(=O)[C@@H]2COCN2C(=O)OCc2ccccc2)CC1 [Example 6, (4S)-4-[cis-4-((1S)-1-amino-2-oxo-2-pyrrolidin-1-yl-ethyl)-cyclohexylcarbamoyl]-oxazolidine-3-carboxylic acid benzyl ester] |
| ≤ 1 | N[C@H](C(=O)N1CCCC1)[C@H]1CC[C@@H](NC(=O)[C@@H]2CNC(=O)N2C(=O)OCc2ccccc2)CC1 [Example 7, (5S)-5-[cis-4-((1S)-1-amino-2-oxo-2-pyrrolidin-1-yl-ethyl)-cyclohexylcarbamoyl]-2-oxo-imidazolidine-1-carboxylic acid benzyl ester] |
